Source: patent US20260284082A1, “TARGETING THE PANX1-P2Y2R-TRPV4 PATHWAY TO TREAT LUNG ISCHEMIA-REPERFUSION INJURY” (UNIVERSITY OF VIRGINIA PATENT FOUNDATION, priority 2023, published 2026)

How the values were obtained:
human PMVECs = test: Baseline Ca2+ signaling in human PMVECs exposed to acute HR (Calbryte 520); type: cell-based; settings: ARC 10 μM; 1 h hypoxia + 10 min reoxygenation
Method: Exposure of PMVECs to acute HR and Ca^2+ imaging in PMVECs: Primary human and murine pulmonary microvascular endothelial cells (PMVECs; Cell Biologics, Chicago, IL) were cultured on gelatin-coated flasks in endothelial cell medium (Cell Biologics). For acute HR exposure, PMVECs were washed with PBS, and serum-free/glucose-free endothelial cell medium was added. PMVECs were placed in a humidified, sealed hypoxia chamber (Billups-Rothenberg, San Diego, CA), whereupon the chamber was flushed with 95% nitrogen/5% CO2 for 20 minutes and placed in a 37° C. incubator to initiate hypoxia. After 1 hour of hypoxia, the chamber was opened to terminate hypoxia. […]
Ca^2+ imaging in human and mouse PMVECs was performed using an Andor Dragonfly 505 spinning-disk confocal imaging system with Borealis illumination and an Integrated Laser Engine solid-state laser source (Andor Technology, Belfast, UK), coupled with a Leica Dmi8 inverted microscope (Leica) and 63× objective (NA 1.47)^13 Images were acquired at 30 frames per second using Fusion 2.3 (Oxford Instruments, Belfast, UK) and an electron-multiplying CCD camera (iXon888). Calbryte 520 AM was excited at 488 nm, and emitted fluorescence was captured using a 525/50 bandpass emission filter. […]

[1] = tested on: porcine transplantation model of lung IRI; test: Porcine left lung transplant model of lung IRI; type: in vivo, swine; settings: for left lung-specific PaO2/FiO2 ratio: 1 mg/kg i.v., mean±SD
Method: The University of Virginia's Animal Care and Use Committee approved this study, protocol 4262 (approved 10/23/2021). All procedures were performed in compliance with the National Institutes of Health 1996 Guide for the Care and Use of Laboratory Animals. Ten farm-raised, domestic swine of both sexes (31.6-60.0 kg weight range) were utilized. Animals were randomized to one of two groups (n=5/group). […] GSK219 or vehicle was administered as a systemic, intravenous infusion (100 ml volume over a 30-min period via central venous line placed in the left external jugular vein) beginning after the recipient animal's left pulmonary artery (PA) was clamped (i.e. at the time of recipient lung explant; approximately 40 min prior to initiation of graft reperfusion). All infusions were completed prior to reperfusion of the implanted lung.
A porcine left lung transplant model was utilized as previously described by our laboratory^18, with modifications as described here. On day 1, the donor animal was sedated and intubated. General anesthesia was maintained while animals were ventilated with 100% oxygen to measure baseline parameters. Lungs were ventilated to a tidal volume of 8.0 mL/kg with a respiratory rate of 22 breaths/min and a positive end-expiratory pressure of 5.0 cm H2O. Intravenous heparin (200 IU/kg, APP Pharmaceuticals, Schaumburg, IL) was administered.
Donor animals underwent a median sternotomy and pericardiotomy to expose the heart, great vessels, and lungs. Prostaglandin E1 ([…], Pfizer, New York, NY) was injected into the main PA. […] The lungs were then flushed with 1 L room temperature heparinized Perfadex (XVIVO Perfusion. Inc, Englewood, CO; 10,000 IU heparin per liter) via the cardioplegia cannula. At this point the lungs underwent 30 min of warm ischemia. At the conclusion of warm ischemia, the thoracic cavity was filled with cold (4° C.) slush, and lungs were flushed with an additional 1 L cold Perfadex via the main PA. At mid-inspiration, the trachea was clamped, and the heart-lung bloc was explanted. The lungs were then flushed retrograde with an additional IL cold Perfadex and placed in 4° C. cold storage for 24 hrs.
On day 2, recipient animals were anesthetized and ventilated as above for donor animals. A left thoracotomy was performed. and the left lung hilum was exposed. Central arterial and venous access was obtained for monitoring. Left pneumonectomy and left lung transplantation were performed as previously described.^18 Lung function was monitored during 4 hours of reperfusion while the left thoracotomy remained open. Combined (left and right) lung compliance was monitored throughout reperfusion. Airway pressure measurements and partial pressure of arterial oxygen (PaO2; systemic arterial as well as direct left pulmonary vein samples for graft-specific oxygenation) were obtained after 15 minutes, 1 hour and hourly thereafter. […] PaO2, PaCO2, and pH were measured using an i-STAT handheld blood analyzer (Abbott Point of Care, Princeton, NJ). After 4 hours of reperfusion, the animal was euthanized, and the heart-lung bloc was excised.
After completion of reperfusion, small peripheral samples of the transplanted left lungs were tied off, and fresh tissue samples were collected from the left upper lobe, the left lingula, and left lower lobe. The same surgeon collected all samples from consistent, peripheral, dependent locations of each lobe in all animals. These samples were either used fresh or flash-frozen in liquid nitrogen and stored at −80° C.
Fresh lung samples were patted dry, weighed, and dried in a vacuum oven at 56° C. until the weight stabilized (typically 3-4 days). Lung wet/dry weight ratios were then calculated to assess edema.
After collection of fresh lung samples, the left upper lobe was lavaged using 40 ml normal saline. Total cell counts and differential cell counts in BAL fluid were performed by the University of Virginia Clinical Laboratory in a blinded fashion. […]

TRPV4 = settings: cited from earlier work
[2] = after 4 hours of reperfusion, vs vehicle
[3] = after reperfusion, vs vehicle, P<0.05
[4] = after reperfusion, vs vehicle, trended lower

Cc1ccc2c(c1)C=Cc1cc(C)ccc1C2c1cn(Cc2ccc(C(=O)Nc3nn[nH]n3)o2)c(=O)[nH]c1=S [ARC, AR-C 118925XX]
HR-induced increase in baseline endothelial Ca signaling (human PMVECs): blocked

O=C(NC1(c2ccccc2)CC1)c1c(CN2CCC(N3CCCCC3)CC2)c(-c2cccc(C(F)(F)F)c2)nc2cc(Br)ccc12 [GSK219, GSK2193874]
adverse effects of administration ([1]; 1 mg/kg i.v. infusion over 30 min to recipient, 4 h reperfusion): no adverse effects | left lung-specific PaO2/FiO2 ratio ([1]; 3 hours of reperfusion, vehicle 85.4±17.2, P=0.026): 276±57 mmHg | left lung-specific PaO2/FiO2 ratio ([1]; 4 hours of reperfusion, vehicle 104±28.6, P=0.003): 303±37 mmHg | left lung wet/dry weight ratios [1, 2]: no significant differences | overall lung histology by H&E staining [1, 2]: significantly improved | wet/dry weight ratios of the left lingula and left lower lobe [1, 2]: trend lower | neutrophils in BAL fluid (percent of total cells, differential cell count) ([1]; after reperfusion, vehicle 80.2±1.4%, P=0.004): 61.8±4.4% | Ang-2 in plasma ([1]; after reperfusion, vs vehicle): significantly reduced | HMGB1 in BAL fluid ([1]; after reperfusion, vs vehicle): significantly reduced | ICAM-1 in plasma ([1]; after reperfusion, vs vehicle): not significantly different | IL-1β in BAL fluid ([1]; after reperfusion, vs vehicle): not significantly altered | IL-8 in BAL fluid ([1]; after reperfusion, vs vehicle): significantly reduced | P-selectin in plasma ([1]; after reperfusion, vs vehicle): not significantly different | VCAM-1 in plasma ([1]; after reperfusion, vs vehicle): not significantly different | ZO-1 in plasma ([1]; after reperfusion, vs vehicle): significantly reduced | ZO-2 in BAL fluid ([1]; after reperfusion, vs vehicle): not significantly different but trended lower | ZO-2 in plasma ([1]; after reperfusion, vs vehicle): but not occludin (FIG. 23A) or ZO-2 (FIG. 23D) were significantly reduced | claudin-5 in plasma ([1]; after reperfusion, vs vehicle): significantly reduced | occludin in plasma ([1]; after reperfusion, vs vehicle): but not occludin (FIG. 23A) or ZO-2 (FIG. 23D) were significantly reduced | ZO-1 in BAL fluid [1, 3]: significantly reduced | claudin-5 in BAL fluid [1, 3]: significantly reduced | occludin in BAL fluid [1, 3]: significantly reduced | P-selectin in BAL fluid ([1]; after reperfusion, vs vehicle, P=0.0075): significantly reduced | ICAM-1 in BAL fluid [1, 4]: No significant changes | VCAM1 in BAL fluid [1, 4]: No significant changes | reduction of neutrophil infiltration (immunohistochemistry of lung sections, neutrophils per HPF) ([1]; compared to vehicle control, P<0.0001): 70% | systemic arterial PaO2/FiO2 ratio ([1]; during reperfusion, vs vehicle): improved during reperfusion in the GSK-treated group, although this was not significant | histologic score for polymorphonuclear neutrophils per high-powered field (PMNs/HPF) ([1]; left lower lobe after reperfusion, vs vehicle, P=0.028): significantly improved | histologic composite lung injury score ([1]; left lower lobe after reperfusion, vs vehicle, P=0.041): significantly improved | histologic score for alveolar edema ([1]; left lower lobe after reperfusion, vs vehicle, P=0.048): significantly improved | average pulmonary venous pH ([1]; throughout reperfusion, vehicle 7.3±0.024, no significant difference): 7.3±0.020 | average pulmonary venous PaCO2 ([1]; throughout reperfusion, vehicle 60.1±2.11, no significant difference): 60.4±1.46 mmHg | reversibility of TRPV4 inhibition (TRPV4): reversible
